Test results as given in paper PMC8222713, “Variation of Two S3b Residues in KV4.1–4.3 Channels Underlies Their Different Modulations by Spider Toxin κ-LhTx-1” (Frontiers in Pharmacology, 2021).
Where a SMILES comes first, the peptide text is derived from it. Bridges are numbered along the chain shown (N, C = ends).

What was measured:
KV2.1 channel (rKV2.1) = experiment: Whole-cell patch clamp selectivity, KV2.1; format: cell-based, rat; conditions: KV2.1, 10 µM, n = 5
Method: (§1) The cDNA of hKV1.1, hKV1.3, rKV1.4, hKV1.5, rKV2.1, hKV3.1–3.4, mKV4.1, rKV4.2, and rKV4.3 were subcloned in the eukaryotic expression vector pCDNA3.1 or pCMV-blank. Channel mutants were made by a site-directed mutation method. Briefly, a pair of oppositely directed primers with 15 bp overlap at their 5′ ends and the designed mutation site were used to amplify the parental channel plasmid, then the PCR mix was treated with DpnI to remove the template. 10 μL digestion mix was directly used to transform 100 μL DH5α chemical competent cells. The correct mutation made by this procedure was finally confirmed by DNA sequencing. […] 4–6 h after transfection, cells were seeded onto poly-lysine (PLL) coated coverslips, and 24–36 h later, transfected cells were ready for patch-clamp analysis. […]
(§2) Whole-cell patch clamp recording was performed in an electrophysiology platform equipped with MultiClamp 700B amplifier and Axon Digidata 1550 AD/DA convertor (Axon Instruments, Irvine, CA, United States). […] The whole cell conductance (G) at each depolarizing voltage (V) was determined using the equation: G = I/(V−Vrev), where I and Vrev represents the current amplitude and the reversal potential, respectively. In the present study, Vrev for K^+ current is determined to be −85.61 mV using the Nernst equation. […] Gating currents of KV4.1–4.3 channels were measured as previously reported ([Tilley et al., 2019]). […]

KV1.1 channel (hKV1.1) = experiment: Whole-cell patch clamp selectivity, KV1.1; format: cell-based, human; conditions: KV1.1, 10 µM, n = 5
Method: as §1, §2

KV3.1 channel (hKV3.1) = experiment: Whole-cell patch clamp selectivity, KV3.1; format: cell-based, human; conditions: KV3.1, 10 µM, n = 5
Method: as §1, §2

[1] = tested on: KV4.3 channel gating currents; experiment: Gating current recording, KV4.3; format: cell-based, rat
Method: as §1, §2

[2] = tested on: KV4.3/275FVPK chimeric channel; experiment: Whole-cell patch clamp, KV4.3/275FVPK chimera in CHO-K1 cells; format: cell-based, rat; conditions: mean ± SEM
Method: (§3) The cDNA of hKV1.1, hKV1.3, rKV1.4, hKV1.5, rKV2.1, hKV3.1–3.4, mKV4.1, rKV4.2, and rKV4.3 were subcloned in the eukaryotic expression vector pCDNA3.1 or pCMV-blank. Channel mutants were made by a site-directed mutation method. Briefly, a pair of oppositely directed primers with 15 bp overlap at their 5′ ends and the designed mutation site were used to amplify the parental channel plasmid, then the PCR mix was treated with DpnI to remove the template. 10 μL digestion mix was directly used to transform 100 μL DH5α chemical competent cells. The correct mutation made by this procedure was finally confirmed by DNA sequencing. CHO-K1 cells (ATCC® CCL-61™) were grown in DMEM-F12 mixed medium (1:1) supplemented with 10% FBS and maintained in standard conditions (saturated humidity, 37°C, 5% CO2). Channel plasmid was co-transfected with pEGFP-N1 (encodes the green fluoresence protein) into CHO-K1 cells using lipofectamine 2000 following the manufacturer’s instructions. 4–6 h after transfection, cells were seeded onto poly-lysine (PLL) coated coverslips, and 24–36 h later, transfected cells were ready for patch-clamp analysis. It should be note that KV4.2 and its mutants were also co-expressed with hKChIP1 to promote their functional expressions.
(§4) Whole-cell patch clamp recording was performed in an electrophysiology platform equipped with MultiClamp 700B amplifier and Axon Digidata 1550 AD/DA convertor (Axon Instruments, Irvine, CA, United States). Data were acquired using the pClamp software (Axon Instruments, Irvine, CA, United States). All experiments were performed at room temperature. The bath solution contains (in mM): 140 NaCl, 5 KCl, 1 MgCl2, 2 CaCl2, 10 glucose, and 10 HEPES (pH = 7.3). The pipette solution contains (in mM): 140 KCl, 2.5 MgCl2, 11 EGTA, and 10 HEPES (pH = 7.3). Series resistance was kept below 10 MΩ and compensated to 80%. The concentration–response curves were fitted by a Hill logistic equation to estimate the potency (IC50) of the toxin. The whole cell conductance (G) at each depolarizing voltage (V) was determined using the equation: G = I/(V−Vrev), where I and Vrev represents the current amplitude and the reversal potential, respectively. In the present study, Vrev for K^+ current is determined to be −85.61 mV using the Nernst equation. G-V curve was obtained by plotting the normalized G as a function of V and fitted by the Boltzmann equation: y = 1/{1 + exp [(Va−V)/K]}, in which Va, V, and K represents half-maximum activation voltage, test voltage and slope factor, respectively. The steady-state fast inactivation of KV4 channels was measured using a classical two-pulses protocol: cell was held at −120 mV, and a train of conditional voltages (−120–40 mV, in 10 mV increment, 1,000 ms) were applied to induce channel inactivation, followed by a +60 mV test pulse (300 ms) to assess the proportion of non-inactivated channels; the sweep interval was set to 10 s. Currents at the test pulse (I) were normalized to the maximum value (Imax) and plotted as a function of the conditional voltage (V), the curve was fitted by the Boltzmann equation: I/Imax = A + (1−A)/{1 + exp [(V−Vh)/K]}, where Vh is the half-maximum inactivation voltage, A represents the minimum channel availability, and K is the slope factor. Gating currents of KV4.1–4.3 channels were measured as previously reported ([Tilley et al., 2019]). Briefly, the ionic pore currents were abolished by replacing K^+ with NMDG^+ in the pipette solution, and 10 µM Cs^+ was present in the bath solution to occupy the selectivity filter of KV channels to prevent decay of the gating currents during recording.
(§5) Data were presented as MEAN ± SEM, n represents the number of separate experimental cells. Data were analyzed using the software Clampfit 10.5 (Axon Instruments, Irvine, CA, United States), Graphpad Prism 5.01 (GraphPad Software, La Jolla, CA, United States) and Excel 2010 (Microsoft Corporation, Redmond, WA, United States). […]

KV4.1/F280V mutant = experiment: Whole-cell patch clamp, KV4.1/F280V in CHO-K1 cells; format: cell-based, mouse; conditions: +30 mV, n = 5
Method: as §1, §2

KV4.3/N278K mutant = experiment: Whole-cell patch clamp, KV4.3/N278K in CHO-K1 cells; format: cell-based, rat
Method: as §3, §4, §5

[3] = tested on: KV4.2 channel gating currents; experiment: Gating current recording, KV4.2; format: cell-based, rat
Method: as §1, §2

KV4.2/277LV/AA mutant = experiment: Whole-cell patch clamp, KV4.2/277LV/AA (with hKChIP1) in CHO-K1 cells; format: cell-based, rat; conditions: KV4.2/277LV/AA at Va depolarizing voltage, n = 5–7
Method: as §1, §2

KV4.3/274LV/AA mutant = experiment: Whole-cell patch clamp, KV4.3/274LV/AA in CHO-K1 cells; format: cell-based, rat; conditions: KV4.3/274LV/AA at Va depolarizing voltage, n = 5–7
Method: as §1, §2

[4] = tested on: KV4.2/280PK (T280P/D281K double mutant); experiment: Whole-cell patch clamp, KV4.2/280PK (with hKChIP1) in CHO-K1 cells; format: cell-based, rat
Method: as §3, §4, §5

[5] = 10 μM κ-LhTx-1, two-pulse protocol, n = 5
[6] = 10 μM κ-LhTx-1, G-V, mean ± SEM, n = 6
[7] = 10 μM κ-LhTx-1, two-pulse protocol, mean ± SEM, n = 5
[8] = Va shift by 10 μM κ-LhTx-1 vs control, mean ± SEM
[9] = Vh shift by 10 μM κ-LhTx-1 vs control, mean ± SEM

CC[C@H](C)[C@@H]1NC(=O)[C@H](CCC(N)=O)NC(=O)[C@@H]2CSSC[C@@H]3NC(=O)[C@H](CC(C)C)NC(=O)[C@H](CC(N)=O)NC(=O)[C@H](CCSC)NC(=O)[C@H](Cc4c[nH]c5ccccc45)NC(=O)[C@H](CO)NC(=O)[C@H](C)NC(=O)[C@@H](NC(=O)[C@H](CCC(=O)O)NC(=O)[C@H](CCC(N)=O)NC(=O)[C@H](C)NC(=O)[C@H](CC(=O)O)NC(=O)[C@@H](N)CCC(=O)O)CSSC[C@H](NC(=O)[C@H](CSSC[C@@H](C(=O)N[C@@H](CCCCN)C(=O)N[C@@H](Cc4ccc(O)cc4)C(=O)N[C@@H](CCCCN)C(=O)N[C@@H](CC(C)C)C(N)=O)NC(=O)[C@H](Cc4c[nH]c5ccccc45)NC1=O)NC(=O)[C@H](CCCCN)NC(=O)[C@H](CCCCN)NC(=O)[C@H](CCC(=O)O)NC(=O)CNC3=O)C(=O)N[C@@H](CCC(=O)O)C(=O)NCC(=O)N[C@@H](Cc1ccc(O)cc1)C(=O)N[C@@H](C(C)C)C(=O)N2 [κ-LhTx-1] (H-EDAQECASWMNLCGEKKCCEGYVCQIWCKYKL-NH2; disulfide 6-19, 13-24, 18-28 (inferred); N-terminus and C-terminus assumed)
effect on currents (KV2.1 channel (rKV2.1)): did not remarkably affect the currents | effect on currents (KV1.1 channel (hKV1.1)): did not remarkably affect the currents | effect on currents (KV3.1 channel (hKV3.1)): did not remarkably affect the currents | inhibition of gating charge (Q) movement, 500 nM vs 10 µM ([1]; KV4.3, holding −100 mV, 20 ms to +30 mV, n = 5–6): inhibited essentially the same proportion of gating charge movement | gating current inhibition ([1]; KV4.3, n = 5–6): inhibited the gating currents | Va (steady-state activation) ([2]; 10 μM κ-LhTx-1, G-V, n = 5): 93.50 ± 2.00 mV | k, slope factor (steady-state activation) ([2]; 10 μM κ-LhTx-1, G-V, n = 5): 17.66 ± 1.15 mV | Vh (steady-state inactivation) [2, 5]: -9.28 ± 5.57 mV | k, slope factor (steady-state inactivation) [2, 5]: 16.78 ± 3.11 mV | ∆Va (steady-state activation) ([2]; Va shift by 10 μM κ-LhTx-1 vs control): 94.81 ± 2.45 mV | ∆Vh (steady-state inactivation) ([2]; Vh shift by 10 μM κ-LhTx-1 vs control): 43.34 ± 5.46 mV | inhi%(min) ([2]; inhibition ratio at +100 mV, 10 μM): 65.91 ± 3.36% | potency vs wild-type KV4.1 (KV4.1/F280V mutant): only slightly reduced κ-LhTx-1 potency | Va (steady-state activation) (KV4.3/N278K mutant; [6]): 68.62 ± 1.73 mV | k, slope factor (steady-state activation) (KV4.3/N278K mutant; [6]): 18.03 ± 0.87 mV | Vh (steady-state inactivation) (KV4.3/N278K mutant; [7]): -17.01 ± 1.57 mV | k, slope factor (steady-state inactivation) (KV4.3/N278K mutant; [7]): 10.75 ± 0.63 mV | voltage-dependence of inhibition vs parental KV4.3 (KV4.3/N278K mutant; 10 μM, still greater than in KV4.1): much less voltage-dependence | ∆Va (steady-state activation) (KV4.3/N278K mutant; [8]): 59.97 ± 2.64 mV | ∆Vh (steady-state inactivation) (KV4.3/N278K mutant; [9]): 30.24 ± 1.80 mV | inhibition of gating charge (Q) movement, 500 nM vs 10 µM ([3]; KV4.2, holding −100 mV, 20 ms to +30 mV, n = 5–6): inhibited essentially the same proportion of gating charge movement | gating current inhibition ([3]; KV4.2, n = 5–6): inhibited the gating currents | effect of mutation on toxin inhibition (KV4.2/277LV/AA mutant): profoundly weakened the effect | effect of mutation on toxin inhibition (KV4.3/274LV/AA mutant): profoundly weakened the effect | ∆Va and inhi%(min) vs KV4.1 ([4]; 10 μM): not significantly different from those in KV4.1 | Va (steady-state activation) [4, 6]: 82.17 ± 1.67 mV | k, slope factor (steady-state activation) [4, 6]: 13.22 ± 1.15 mV | Vh (steady-state inactivation) [4, 7]: -9.93 ± 2.94 mV | k, slope factor (steady-state inactivation) [4, 7]: 11.46 ± 1.10 mV | ∆Va (steady-state activation) [4, 8]: 102.8 ± 3.22 mV | ∆Vh (steady-state inactivation) [4, 9]: 43.66 ± 3.77 mV
